The results in this text go back to PubChem BioAssay (NCI).

Each structure is given as a SMILES string. Where “and” joins values, the source holds several entries; their conditions need not be identical. Equal values may be shown once.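 Cultured in 96-well plates, cells were exposed to test compound for 48 hours across five concentrations. GI50 = concentration required for 50% inhibition of growth. Definition used: TGI = concentration required for complete inhibition of growth.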

Among the test systems are OVCAR-5 ovarian; NCI-H460 lung; NCI/ADR-RES ovarian; T-47D breast; NCI-H226 lung; MALME-3M melanoma; PC-3 prostate; A498 renal; HS 578T breast; RXF 393 renal.
Holding throughout (test): inhibition of tumour cell growth, NCI panel, 48 h

On to `O=C1CCCCCCCCCCC1CN1CCCC1` (stereo not drawn), for which the TGI in the assay on OVCAR-5 ovarian, in the assay with NCI-H460 lung, in the assay on NCI/ADR-RES ovarian, in the assay on T-47D breast, in the assay with NCI-H226 lung and in the assay with MALME-3M melanoma was more than 100 µM each time. In addition, the TGI in the assay with PC-3 prostate was more than 100 µM; in the assay on A498 renal it was more than 100 µM; in the assay on HS 578T breast it was 84.7 µM; in the assay with RXF 393 renal it was 65.4 µM.

As for `COc1cccc(-c2c[nH]c3c(N/N=C/c4ccncc4)ncnc23)c1`, the GI50 in the assay with OVCAR-5 ovarian was 4.93 µM; with NCI-H460 lung, 1.4 µM; with NCI/ADR-RES ovarian, 4.54 µM; with T-47D breast, 3.07 µM; in the assay on NCI-H226 lung, 1.75 µM; in the assay on MALME-3M melanoma, 8.58 µM. Besides, the GI50 in the assay with PC-3 prostate was 4.53 µM; in the assay with A498 renal, 1.96 µM; with HS 578T breast, 0.816 µM; with RXF 393 renal, 0.501 µM. Moreover, the TGI was 17.2 µM in the assay on OVCAR-5 ovarian; 5.89 µM with NCI-H460 lung; more than 19.3 µM in the assay with NCI/ADR-RES ovarian; more than 15.5 µM in the assay with T-47D breast; more than 16 µM with NCI-H226 lung; 20.9 µM with MALME-3M melanoma. The TGI with PC-3 prostate is more than 25 µM; in the assay on A498 renal, 7.7 µM; in the assay on HS 578T breast, 9.97 µM; with RXF 393 renal it was 2.16 µM.

As for `Nc1ncnc2c1N=C(c1ccc3c(c1)OCO3)CC(c1ccc([N+](=O)[O-])cc1)N2` (stereo not drawn), the GI50 in the assay with OVCAR-5 ovarian was more than 100 µM; in the assay on NCI-H460 lung it was 76.3 µM; in the assay with NCI/ADR-RES ovarian, 55.4 µM; in the assay on T-47D breast it was 80.7 µM; with NCI-H226 lung, more than 100 µM; with MALME-3M melanoma, 61.1 µM. The GI50 was 31.1 µM in the assay on PC-3 prostate, 25.1 µM in the assay with A498 renal, 9.18 µM in the assay on HS 578T breast and 7.19 µM with RXF 393 renal. Besides, the TGI in the assay on OVCAR-5 ovarian, with NCI-H460 lung, with NCI/ADR-RES ovarian, with T-47D breast, in the assay on NCI-H226 lung and in the assay on MALME-3M melanoma was more than 100 µM throughout. Also, the TGI is more than 100 µM in the assay on PC-3 prostate, 90 µM in the assay with A498 renal, more than 100 µM in the assay on HS 578T breast and 63.1 µM in the assay on RXF 393 renal.

Regarding `O=C1OCC2=C1C(c1cccc(Cl)c1)c1cc3c(cc1N2CCO)OCCO3` (stereo not drawn), the GI50 is 0.539 µM in the assay with OVCAR-5 ovarian; 0.0494 µM in the assay on NCI-H460 lung; 0.0631 µM in the assay with NCI/ADR-RES ovarian; 0.0677 µM with T-47D breast; 0.0845 µM in the assay with NCI-H226 lung; 0.0551 µM in the assay with MALME-3M melanoma. Besides, the GI50 in the assay with PC-3 prostate is 0.0502 µM; in the assay with A498 renal, 0.0265 µM; in the assay with HS 578T breast it was 0.0747 µM; in the assay with RXF 393 renal, 0.0294 µM. The TGI in the assay on OVCAR-5 ovarian was more than 100 µM; in the assay with NCI-H460 lung, 4.59 µM; in the assay with NCI/ADR-RES ovarian, 0.373 µM; in the assay on T-47D breast it was more than 100 µM; in the assay on NCI-H226 lung, 1.85 µM; in the assay with MALME-3M melanoma, more than 100 µM. The TGI was 13.1 µM with PC-3 prostate, 0.58 µM in the assay with A498 renal, more than 78.2 µM with HS 578T breast and 0.174 µM with RXF 393 renal.

With `COc1cc(OC)c2nc(C)c3c(c2c1)SCC3`, the TGI in the assay with OVCAR-5 ovarian worked out at 80.2 µM; in the assay on NCI-H460 lung it was 54.3 µM; in the assay on NCI/ADR-RES ovarian it was 65.5 µM; in the assay with T-47D breast it was 58 µM; in the assay on NCI-H226 lung, 43.8 µM; in the assay on MALME-3M melanoma, 63.8 µM. In addition, the TGI with PC-3 prostate was 53.1 µM; in the assay on A498 renal it was 36.2 µM; in the assay with HS 578T breast, 57.7 µM; in the assay with RXF 393 renal it was 54.1 µM.

For `CN(C)CCN1C(=O)c2c(c3c4ccccc4n4c3c3c2c2ccccc2n3C2CC(O)C(O)C4(C)O2)C1=O` (stereo not drawn), the GI50 in the assay on OVCAR-5 ovarian is 4.43 µM; with NCI-H460 lung it was 0.232 µM; in the assay with NCI/ADR-RES ovarian, 8.2 µM; in the assay with T-47D breast it was 2.39 µM; in the assay on NCI-H226 lung it was 2.26 µM; with MALME-3M melanoma, 2.14 µM. Also, the GI50 in the assay on PC-3 prostate is 2.05 µM; in the assay on A498 renal, 1.24 µM; with HS 578T breast, 2.34 µM; in the assay with RXF 393 renal, 1.89 µM. For the same compound, the TGI was determined as 27.6 µM with OVCAR-5 ovarian; 5.08 µM in the assay with NCI-H460 lung; 23.3 µM in the assay on NCI/ADR-RES ovarian; 12.1 µM with T-47D breast; 29 µM in the assay on NCI-H226 lung; 9.3 µM in the assay with MALME-3M melanoma. Further, the TGI in the assay on PC-3 prostate came to 9.48 µM; in the assay with A498 renal it was 7.88 µM; in the assay on HS 578T breast, 12 µM; with RXF 393 renal, 8.27 µM.

Consider `CC[C@@]1(O)C(=O)OCc2c1cc1n(c2=O)Cc2cc3cc4c(cc3nc2-1)OCO4`, for which the TGI in the assay with OVCAR-5 ovarian was 0.122 µM and 0.0372 µM; in the assay on NCI-H460 lung, 0.0876 µM and 0.0232 µM; in the assay on NCI/ADR-RES ovarian it was more than 100 µM; in the assay with T-47D breast it was 0.427 µM; in the assay on NCI-H226 lung, 0.00616 µM and < 0.0387 µM; with PC-3 prostate, more than 100 µM. Also, the TGI in the assay with A498 renal is 0.0685 µM and 0.114 µM; in the assay with HS 578T breast, more than 100 µM; with RXF 393 renal, 0.0831 µM. Further, the GI50 with MALME-3M melanoma was less than 0.0144 µM; in the assay on A498 renal, 0.00137 µM; with HS 578T breast, more than 100 µM; in the assay on RXF 393 renal, less than 0.0267 µM.

On to `COc1cc2nc(N3CCCC3)nc(NCc3ccccc3)c2cc1OC`, for which the GI50 is 4.63 µM in the assay with OVCAR-5 ovarian; 2.95 µM in the assay on NCI-H460 lung; 3.71 µM in the assay on NCI/ADR-RES ovarian; 1.87 µM in the assay with T-47D breast; 17.3 µM in the assay with NCI-H226 lung; 1.84 µM in the assay with MALME-3M melanoma. In addition, the GI50 in the assay on PC-3 prostate is 3.08 µM; in the assay on A498 renal, 2.16 µM; in the assay on HS 578T breast, 1.99 µM; with RXF 393 renal, 1.41 µM. The TGI in the assay with OVCAR-5 ovarian stood at 16.8 µM; with NCI-H460 lung, 8.73 µM; in the assay with NCI/ADR-RES ovarian it was 18.7 µM; in the assay on T-47D breast it was 4.29 µM; in the assay on NCI-H226 lung it was 40.4 µM; in the assay on MALME-3M melanoma it was 3.34 µM. Further, the TGI with PC-3 prostate amounted to 15.2 µM; in the assay on A498 renal, 8.56 µM; with HS 578T breast it was 4.5 µM; in the assay with RXF 393 renal it was 3.06 µM.
